ChEMBL document CHEMBL1201862, “PubChem BioAssay data set” (2004)
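Briefly, cells in 96-well plates were exposed to five compound concentrations for 48 h, and endpoints were estimated by linear interpolation. The concentration for 50% growth inhibition is given as GI50.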 Activity calls are given as the source filed them. Cut-off read from the data, not from the text of the source: active = GI50 up to about 1.1 µM and inactive = higher.

Columns and labels:
Experiment in all cases: inhibition of tumour cell growth, NCI panel, 48 h
[1] = system: A498
[2] = system: HCC 2998
[3] = system: KM12
[4] = system: NCI-H226
[5] = system: COLO 205
[6] = system: SF-539
[7] = system: NCI-H460
[8] = system: HOP-62
[9] = system: SK-MEL-28
[10] = system: RXF 393
[11] = system: SR
[12] = system: OVCAR-3
[13] = system: HL-60
[14] = system: UO-31
[15] = system: CAKI-1
[16] = system: MDA-MB-435
[17] = system: MDA-N
[18] = system: NCI/ADR-RES
[19] = system: PC-3
[20] = system: Hs-578T

Structure (SMILES)	GI50 [1]	GI50 [2]	GI50 [3]	GI50 [4]	GI50 [5]	GI50 [6]	GI50 [7]	GI50 [8]	GI50 [9]	GI50 [10]	GI50 [11]	GI50 [12]	GI50 [13]	GI50 [14]	GI50 [15]	GI50 [16]	GI50 [17]	GI50 [18]	GI50 [19]	GI50 [20]
O=c1c(O)c(-c2ccccc2)n(O)c2ccc(Cl)cc12	29.2 µM (inactive)	17.7 µM (inactive)	31.6 µM (inactive)	19.1 µM (inactive)	36.1 µM (inactive)	20 µM (inactive)	23.6 µM (inactive)	27.9 µM (inactive)	44 µM (inactive)	23.1 µM (inactive)	28.8 µM (inactive)	32.3 µM (inactive)	24.1 µM (inactive)	51.2 µM (inactive)	29.9 µM (inactive)					
CCOC(=O)c1c(-c2ccc(OC)cc2)c(C#N)c(=S)n(C2OC(CO)C(O)C(O)C2O)c1C (stereo unspecified)	> 100 µM (inactive)	> 100 µM (inactive)	> 100 µM (inactive)	> 100 µM (inactive)	> 100 µM (inactive)	> 100 µM (inactive)		> 100 µM (inactive)	> 100 µM (inactive)	> 100 µM (inactive)	> 100 µM (inactive)	> 100 µM (inactive)	> 100 µM (inactive)	> 100 µM (inactive)	87.7 µM (inactive)	> 100 µM (inactive)	> 100 µM (inactive)	> 100 µM (inactive)	> 100 µM (inactive)	
CC(C)(C)C#C[P+](c1ccccc1)(c1ccccc1)c1ccccc1	0.23 µM (active)	0.293 µM (active)	0.238 µM (active)	0.33 µM (active)	0.17 µM (active)	0.373 µM (active)	0.152 µM (active)	0.277 µM (active)	0.0728 µM (active)	0.329 µM (active)	0.149 µM (active)	0.351 µM (active)	0.057 µM (active)	1.04 µM (active)	0.804 µM (active)					
CC(Oc1ccc2cc(C(=O)c3ccccc3)c(=O)oc2c1)C(=O)O (stereo unspecified)	> 100 µM (inactive)	> 100 µM (inactive)	> 100 µM (inactive)	> 100 µM (inactive)	> 100 µM (inactive)	> 100 µM (inactive)	> 100 µM (inactive)	> 100 µM (inactive)	> 100 µM (inactive)	> 100 µM (inactive)	> 100 µM (inactive)	> 100 µM (inactive)	> 100 µM (inactive)	> 100 µM (inactive)	> 100 µM (inactive)					
N#Cc1[nH]c(=S)[nH]c1N	> 100 µM (inactive)	> 100 µM (inactive)		> 100 µM (inactive)	> 100 µM (inactive)	> 100 µM (inactive)	> 100 µM (inactive)	> 100 µM (inactive)	> 100 µM (inactive)	> 100 µM (inactive)	> 100 µM (inactive)	> 100 µM (inactive)	> 100 µM (inactive)	> 100 µM (inactive)	> 100 µM (inactive)	> 100 µM (inactive)		> 100 µM (inactive)	> 100 µM (inactive)	2.99 µM (inactive)
COc1ccc(Cc2nc3ccccc3s2)cc1OC	23.7 µM (inactive)	21.1 µM (inactive)	17.4 µM (inactive)	21 µM (inactive)	14.6 µM (inactive)	17.3 µM (inactive)	19.7 µM (inactive)	29.6 µM (inactive)	18 µM (inactive)	19.6 µM (inactive)	18.9 µM (inactive)	17.3 µM (inactive)	18.4 µM (inactive)	16.4 µM (inactive)	15.5 µM (inactive)					
OC[C@H]1O[C@@H]2O[C@@](COCc3ccccc3)([C@H](OCc3ccccc3)[C@H]2O)[C@@H]1OCc1ccccc1	18.1 µM (inactive)		16.7 µM (inactive)		17.4 µM (inactive)	17.5 µM (inactive)	17 µM (inactive)	18.1 µM (inactive)			2.33 µM (inactive)	14.6 µM (inactive)	18.2 µM (inactive)	15.6 µM (inactive)	15.7 µM (inactive)	17.3 µM (inactive)		17.2 µM (inactive)	14.2 µM (inactive)	7.4 µM (inactive)
COc1ccc(-c2c(C#N)c(S)n(NS(=O)(=O)c3ccc(C)cc3)c(=O)c2C#N)cc1	30.5 µM (inactive)	30.3 µM (inactive)	15.3 µM (inactive)	20 µM (inactive)	18.2 µM (inactive)	14.6 µM (inactive)	32.6 µM (inactive)	29.6 µM (inactive)	24.2 µM (inactive)	17.5 µM (inactive)			11.1 µM (inactive)		44.5 µM (inactive)		17.6 µM (inactive)	20.3 µM (inactive)	18.2 µM (inactive)	
COc1ccc(SS(=O)(=O)c2ccc(OC)cc2)cc1	17.2 µM (inactive)	13.6 µM (inactive)	16.5 µM (inactive)	23.6 µM (inactive)	17.9 µM (inactive)	18.8 µM (inactive)	38.6 µM (inactive)	23.8 µM (inactive)	19.6 µM (inactive)	18.1 µM (inactive)	23.1 µM (inactive)	18.2 µM (inactive)	2.24 µM (inactive)	13.9 µM (inactive)	22.5 µM (inactive)					
